In US7615643B2 (SmithKline Beecham Corporation, priority 2006, dated 2009):

Target: T1, PLK1 (Homo sapiens, UniProt P53350)
T1 construct: PLK kinase domain (amino acids 21-346 preceded by MKKGHHHHHHD); made in house; host or cells: baculovirus infected T. ni cells
Experiment: Assay for inhibition of PLK1 (SPA kinase assay)
Format: biochemical
Details: 1 μM ATP, 2 nM PLK1 kinase domain, read-out: PLK1 pIC50 (converted)
Procedure: I. Assay for Inhibition of PLK1
A. Preparation of 6× N-terminal His-tagged PLK Kinase Domain
6× N-terminal His-tagged PLK kinase domain (amino acids 21-346 preceded by MKKGHHHHHHD) SEQ ID: No. 1. was prepared from baculovirus infected T. ni cells under polyhedrin promoter control. All procedures were performed at 4° C. Cells were lysed In 50 mM HEPES, 200 mM NaCl, 50 mM imidazole, 5% glycerol; pH 7.5. The homogenate was centrifuged at 14K rpm in a SLA-1500 rotor for 1 hr and the supernatant filtered through a 1.2 micron filter. The supernatant was loaded onto a Nickel chelating Sepharose (Amersham Pharmacia) column and washed with lysis buffer. Protein was eluted using 20%, 30% and 100% buffer B steps where buffer B was 50 mM HEPES, 200 mM NaCl, 300 mM imidazole, 5% glycerol; pH 7.5. Fractions containing PLK were determined by SDS-PAGE. Fractions containing PLK were diluted five-fold with 50 mM HEPES, 1 mM DTT, 5% glycerol; pH 7.5, then loaded on an SP Sepharose (Amersham Pharmacia) column. After washing the column with 50 mM HEPES, 1 mM DTT, 5% glycerol; pH 7.5, PLK was step eluted with 50 mM HEPES, 1 mM DTT, 500 mM NaCl; 5% glycerol; pH 7.5. PLK was concentrated using a 10 kDa molecular weight cutoff membrane and then loaded onto a Superdex 200 gel filtration (Amersham Pharmacia) column equilibrated in 25 mM HEPES, 1 mM DTT, 500 mM NaCl, 5% glycerol; pH 7.5. Fractions containing PLK were determined by SDS-PAGE. PLK was pooled, aliquoted and stored at −80° C. Samples were quality controlled using mass spectrometry, N-terminal sequencing and amino acid analysis.
B. Enzyme Activity +/− Inhibitors was Determined as Follows:
All measurements were obtained under conditions where signal production increased linearly with time and enzyme. Test compounds were added to white 384-well assay plates (0.1 μL for 10 μL and some 20 μL assays, 1 μL for some 20 μL assays) at variable known concentrations in 100% DMSO. DMSO (1-5% final, as appropriate) and EDTA (65 mM in reaction) were used as controls. Reaction Mix was prepared as follows at 22° C.: • 25 mM HEPES, pH 7.2 • 15 mM MgCl2 • 1 μM ATP • 0.05 μCi/well ^33P-γ ATP (10 Ci/mMol) • 1 μM substrate peptide (Biotin-Ahx-SFNDTLDFD) SEQ ID:No. 2. • 0.15 mg/mL BSA • 1 mM DTT • 2 nM PLK1 kinase domain (added last)
Reaction Mix (10 or 20 μL) was quickly added to each well immediately following addition of enzyme via automated liquid handlers and incubated 1-1.5 h at 22° C. The 20 μL enzymatic reactions were stopped with 50 μL of stop mix (50 mM EDTA, 4.0 mg/mL Streptavidin SPA beads in Standard Dulbecco's PBS (without Mg^2+ and Ca^2+), 50 μM ATP) per well. The 10 μL reactions were stopped with 10 μL of stop mix (50 mM EDTA, 3.0 mg/mL Streptavidin-coupled SPA imaging Beads (“LeadSeeker”) in Standard Dulbecco's PBS (without Mg^2+ and Ca^2+), 50 μM ATP) per well. Plates were sealed with clear plastic seals, spun at 500×g for 1 min or settled overnight, and counted in Packard TopCount for 30 seconds/well (regular SPA) or imaged using a Viewlux imager (LeadSeeker SPA). Signal above background (EDTA controls) was converted to percent Inhibition relative to that obtained in control (DMSO-only) wells.

T1 sequence (P53350 21-346): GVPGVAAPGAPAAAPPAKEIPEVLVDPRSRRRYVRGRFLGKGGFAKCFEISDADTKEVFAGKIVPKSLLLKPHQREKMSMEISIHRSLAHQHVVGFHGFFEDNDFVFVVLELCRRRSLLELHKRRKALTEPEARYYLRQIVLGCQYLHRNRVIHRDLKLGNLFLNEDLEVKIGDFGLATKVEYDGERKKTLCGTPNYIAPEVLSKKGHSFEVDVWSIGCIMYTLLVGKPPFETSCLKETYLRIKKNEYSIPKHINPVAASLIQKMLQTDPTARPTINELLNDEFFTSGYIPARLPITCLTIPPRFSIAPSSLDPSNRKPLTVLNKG

SMILES	IC50 [µM]
C[C@@H](Oc1cc(-n2cnc3ccccc32)sc1C(N)=O)c1cccc(OCCN2CCOCC2)c1Cl [Example 15, 5-(1H-benzimidazol-1-yl)-3-{[(1R)-1-(2-chloro-3-{[2-(4-morpholinyl)ethyl]oxy}phenyl)ethyl]oxy}-2-thiophenecarboxamide]	< 0.1
C[C@@H](Oc1cc(-n2cnc3ccccc32)sc1C(N)=O)c1cccc(OCCN2CCNCC2)c1Cl [Example 16, 5-(1H-benzimidazol-1-yl)-3-{[(1R)-1-(2-chloro-3-{[2-(1-piperazinyl)ethyl]oxy}phenyl)ethyl]oxy}-2-thiophenecarboxamide]	< 0.1
C[C@@H](Oc1cc(-n2cnc3ccccc32)sc1C(N)=O)c1cccc(OCCN2CCN(C)CC2)c1Cl [Example 17, 5-(1H-benzimidazol-1-yl)-3-{[(1R)-1-(2-chloro-3-{[2-(4-methyl-1-piperazinyl)ethyl]oxy}phenyl)ethyl]ocy}-2-thiophenecarboxamide]	< 0.1
C[C@@H](Oc1cc(-n2cnc3cc(-c4ccc(NC5CCN(C)CC5)nc4)ccc32)sc1C(N)=O)c1cccc(OC2CCN(C)CC2)c1Cl [Example 18, 3-[((1R)-1-{2-chloro-3-[(1-methyl-4-piperidinyl)oxy]phenyl}ethyl)oxy]-5-(5-{6-[(1-methyl-4-piperidinyl)amino]-3-pyridinyl}-1H-benzimidazol-1-yl)-2-thiophenecarboxamide]	< 0.1
CC(C)N1CCC(Oc2cccc([C@@H](C)Oc3cc(-n4cnc5cc(Cl)ccc54)sc3C(N)=O)c2Cl)CC1 [Example 24, 5-(5-Chloro-1H-benzimidazol-1-yl)-3-{[(1R)-1-(2-chloro-3-{[1-(1-methylethyl)-4-piperidinyl]oxy}phenyl)ethyl]oxy}-2-thiophenecarboxamide]	< 0.1
C[C@@H](Oc1cc(-n2cnc3cc(-c4cnn(C)c4)ccc32)sc1C(N)=O)c1cccc(OCCN2CCOCC2)c1Cl [Example 25, 3-{[(1R)-1-(2-chloro-3-{[2-(4-morpholinyl)ethyl]oxy}phenyl)ethyl]oxy}-5-[5-(1-methyl-1H-pyrazol-4-yl)-1H-benzimidazol-1-yl]-2-thiophenecarboxamide]	< 0.1

Now from value to molecule:

IC50 [µM]	SMILES
< 0.1	CCN1CCC(Oc2cccc([C@@H](C)Oc3cc(-n4cnc5cc(Cl)ccc54)sc3C(N)=O)c2Cl)CC1 [Example 19, 5-(5-Chloro-1H-benzimidazol-1-yl)-3-[((1R)-1-{2-chloro-3-[(1-ethyl-4-piperidinyl)oxy]phenyl}ethyl)oxy]-2-thiophenecarboxamide]
< 0.1	C[C@@H](Oc1cc(-n2cnc3cc(Cl)ccc32)sc1C(N)=O)c1cccc(OC2CCN(CCO)CC2)c1Cl [Example 20, 5-(5-Chloro-1H-benzimidazol-1-yl)-3-{[(1R)-1-(2-chloro-3-{[1-(2-hydroxyethyl)-4-piperidinyl]oxy}phenyl)ethyl]oxy}-2-thiophenecarboxamide]
< 0.1	C[C@@H](Oc1cc(-n2cnc3cc(Cl)ccc32)sc1C(N)=O)c1cccc(OC2CCN(CCF)CC2)c1Cl [Example 21, 5-(5-Chloro-1H-benzimidazol-1-yl)-3-{[(1R)-1-(2-chloro-3-{[1-(2-fluoroethyl)-4-piperidinyl]oxy}phenyl)ethyl]oxy}-2-thiophenecarboxamide]
< 0.1	C[C@@H](Oc1cc(-n2cnc3cc(Cl)ccc32)sc1C(N)=O)c1cccc(OC2CCN(CCN)CC2)c1Cl [Example 22, 3-{[(1R)-1-(3-{[1-(2-aminoethyl)-4-piperidinyl]oxy}-2-chlorophenyl)ethyl]oxy}-5-(5-chloro-1H-benzimidazol-1-yl)-2-thiophenecarboxamide]
< 0.1	C[C@@H](Oc1cc(-n2cnc3cc(Cl)ccc32)sc1C(N)=O)c1cccc(OC2CCN(CCS(C)(=O)=O)CC2)c1Cl [Example 23, 5-(5-Chloro-1H-benzimidazol-1-yl)-3-({(1R)-1-[2-chloro-3-({1-[2-(methylsulfonyl)ethyl]-4-piperidinyl}oxy)phenyl]ethyl}oxy)-2-thiophenecarboxamide]
